In patent US3960862A, “1,3-Diazacycloalkeno-[1,2,d]-benzo-[f-]-1,3,4-thiadiazepines” (BASF Aktiengesellschaft, priority 1973, dated 1976):

What was measured:
[1] = pharmacological screening (blood pressure, sympathomimetric and central nervous system effects; analgesic, spasmolytic, anti-inflammatory, broncholytic properties); settings: in vivo
[2] = effective dose compared with range of toxic doses; settings: in vivo
[3] = system: phenylquinone-induced writhing reactions in mice; test: writhing test on mice (phenylquinone i.p.), peroral application; assay type: in vivo; settings: for ΣR x ± sx (frequency of writhing reactions) / % effect (Decrease in the writhing reactions): n = 10, mice
Experimental: In this test p-benzoquinone (phenylquinone) in a 0.02% aqueous solution in a volume of 10 ml/kg of body weight i.p. serves to initiate pain. The typical writhing reactions which occur after a certain latency period are recorded in their frequency; decrease in the writhing frequency is evaluated as analgesic effect. The following Table indicates the numerical connection between dosage and effect after peroral application of the active ingredient.
^o T-test for independent random samples, bilateral questioning, significant down to 0.05, below 0.001 not given. n = number of test animals. The values are mean values ± mean error of the mean value.

central nervous system = test: behavior of animals treated with the compound; design: species or system mice; settings: mouse, in vivo

SMILES | pharmacological effect, particularly analgesic properties [1] | effective dose relative to toxic doses [2] | ΣR x ± sx (frequency of writhing reactions) ([3]; 4.64 mg/kg peroral) | % effect (Decrease in the writhing reactions) ([3]; 4.64 mg/kg peroral, P <0.02) | ΣR x ± sx (frequency of writhing reactions) ([3]; 10 mg/kg peroral) | % effect (Decrease in the writhing reactions) ([3]; 10 mg/kg peroral, P <0.002) | ΣR x ± sx (frequency of writhing reactions) ([3]; 21.5 mg/kg peroral) | % effect (Decrease in the writhing reactions) ([3]; 21.5 mg/kg peroral, P <0.001) | ΣR x ± sx (frequency of writhing reactions) ([3]; 46.4 mg/kg peroral) | % effect (Decrease in the writhing reactions) ([3]; 46.4 mg/kg peroral, P <0.001) | ΣR x ± sx (frequency of writhing reactions) ([3]; 100 mg/kg peroral) | % effect (Decrease in the writhing reactions) ([3]; 100 mg/kg peroral, P <0.001) | ΣR x ± sx (frequency of writhing reactions) ([3]; 215 mg/kg peroral) | % effect (Decrease in the writhing reactions) ([3]; 215 mg/kg peroral, P <0.001) | ED50 ([3]; Mus musculus, po, peroral application, mice, from regression line) | behavior of treated animals (central nervous system)
O=[N+]([O-])c1cccc(C2=NN3CCCN=C3c3ccccc3S2)c1 [Example 18, Tetrahydropyrimidino-[1,2-d]-benzo-[f]-2-(3-nitrophenyl)-1,3,4-thiadiazepine] | singled out for their pharmacological effect, particularly their analgesic properties | much below the range of toxic doses | 14.7 ± 2.1 | 28.1 ± 10.3% | 12.7 ± 2.4 | 37.9 ± 11.8% | 10.4 ± 1.9 | 49.1 ± 9.4% | 8.9 ± 1.5 | 56.5 ± 7.2% | 6.2 ± 1.7 | 69.7 ± 8.4% | 0.8 ± 0.8 | 96.1 ± 3.9% | 21.6 mg/kg | consistent with a central nervous system depressant action
O=[N+]([O-])c1cccc(C2=NN3CCN=C3c3ccccc3S2)c1 [Example 4, Imidazolino-[1,2-d]-benzo-[f]-2-(3-nitrophenyl)-1,3,4-thiadiazepine] | singled out for their pharmacological effect, particularly their analgesic properties |  |  |  |  |  |  |  |  |  |  |  |  |  |  | 
